US9937250B2, “Immunogenic tumor associated stromal cell antigen peptides and methods of their use” (University of Pittsburgh—Of the Commonwealth System of …, priority 2011, dated 2018)

How the values were obtained:
B16 melanoma = experiment: Therapeutic vaccination of established B16 melanoma (tumor growth, survival); type: in vivo, HHD or C57BL/6 (B6) mice; conditions: for Survival of B16-bearing HHD mice: followed through 60 days post-tumor inoculation (FIG. 11C); for B16 tumor growth in HHD mice: therapeutic vaccines, HHD mice (FIG. 11B)
Method: FIGS. 11A-11C show a series of graphs illustrating that DC.IL12 vaccines containing TASA-derived peptides are therapeutic against MC38 colon carcinomas and B16 melanomas in HHD mice. In FIG. 11A, HHD mice bearing established day seven subcutaneous MC38 tumors (right flank) were left untreated, or they were vaccinated in the left flank with control DC.IL12 or DC.IL12 pulsed with an equimolar pool (10 μM each) of the following TASA-derived peptides: DLK1326-334, EPhA2883-891, HBB31-39, NRP1869-877, PDGFRβ890-898, RGS55-13 and TEM1691-700. Identical booster vaccines were provided on day 14 post-tumor inoculation. As indicated, two vaccine cohorts were treated with depleting anti-CD4 or anti-CD8 monoclonal antibodies to evaluate the impact of these T cell subsets on therapy outcome. Tumor growth was monitored every 3-4 days through d28. In FIG. 11B, Female HHD or C57BL/6 (B6) mice were inoculated subcutaneously in the right flank with 1×10^5B16 (HLA-A2^neg) tumor cells. […] The mice then received vaccines consisting of isologous control or peptide-pulsed DC.IL12 cells subcutaneously in the left flank on days 10 and 17 (post-tumor inoculation). In cases where more than one peptide was identified for a given target antigen, an equimolar pool of the indicated peptides (each 10 μM) was pulsed onto DC.IL12 and used for vaccination. Tumor size (mean+/−SD) was monitored every 3-4 days through day 34. In FIG. 11A and FIG. 11B, mean tumor area+/−SD is reported for 5 animals/cohort. Data are the representative of those obtained in two independent experiments in each case. *p<0.05 versus DC only on the indicated days. In FIG. 11C, HHD mice bearing subcutaneous B16 melanomas were treated as described in FIG. 11B and followed through day 60 post-tumor inoculation. Data are reported in a Kaplan-Meier plot depicting overall percentage of surviving animals over time. *p<0.02 versus DC only; **p<0.002 versus DC only (with refined p-values for differences between treatment cohorts reported in Table 6). Data are cumulative for three independent experiments performed.
Vaccine Experiments. For prophylactic experiments, HHD mice were immunized subcutaneously on the right flank with 100 μl PBS or PBS containing 10^6 syngenic DC.IL12 cells that had been untreated or pre-pulsed for 4 h at 37° C. with 10 μM synthetic peptide(s). […] For analysis of tumor cellular composition in repeat experiments, MC38 tumors were isolated by surgical resection 10 days after tumor inoculation and prepared for fluorescence imaging, as described below. […] In some assays, as indicated, in vivo antibody depletions (on days 6, 13 and 20 post-tumor inoculation to assess early involvement or on days 60 and 67 or 180 and 187 to assess late involvement) of protective CD4^+ T cells or CD8^+ T cells were performed and monitored as previously described (Zhao et al., Mol Ther., 19:805-814, 2011). In all cases, tumor size (area) was monitored every 3-4 days and is reported as mean+/−SD in mm^2.
To analyze the status and specificity of Tc1 cells, HHD mice rendered free of B16 melanoma after therapeutic vaccination with DLK or RGS5 peptide-based vaccines were sacrificed 60 days after tumor inoculation. Fresh MACS-isolated spleen CD8^+ T cells were then analyzed for reactivity against HLA-A2^+PDGFRβ^+CD31^neg pericytes, HLA-A2^+PDGFRβ^negCD31^+ VEC or HLA-A2^neg tumor cells flow-sorted from day 19 B16 tumors growing progressively in untreated HHD mice. […]

CD8+ splenocytes = experiment: Tc1 response to DC.IL12/peptide vaccination (splenic CD8+ T cell IFN-γ ELISA against peptide-pulsed T2 cells); type: in vivo, HHD mice; conditions: DC.IL12 pulsed with peptide(s), two s.c. vaccinations; versus DC only
Excerpt: FIGS. 9A-9B show a series of graphs illustrating induction of specific/protective CD8^+ T cells reactive against TASA as a consequence of DC/peptide-based vaccination. In FIG. 9A, HHD mice (five animals/cohort) were vaccinated twice (d-14, d-7) subcutaneously with PBS or with isologous DC.IL12 pulsed with PBS or synthetic peptides (Table 6) derived from the indicated TASA. In cases where more than 1 peptide was identified for a given target antigen, an equimolar pool of the indicated peptides (each 10 μM) was pulsed onto DC.IL12 and used for vaccination in the relevant cohort. One week after the second immunization, spleens were harvested and splenic CD8^+ T cells isolated using MACS-beads (Miltenyi). T cells were stimulated in vitro for 48 h using the HLA-A2^+ T2 cell line pulsed with relevant TASA vs. irrelevant HIV-nef190-198 ([…]; ref. 24) peptides. Cell-free supernatants were then recovered and IFN-γ levels by ELISA. Data are reported as mean+/−SD for triplicate ELISA determinations, and are representative of 3 independent experiments performed. *p<0.05 vs. HIV-nef control peptide responses. In FIG. 9B, HHD mice were vaccinated twice (days −14 and −7; right flank) subcutaneously with PBS or with isologous DC.IL12 pulsed with PBS or synthetic TASA peptides as indicated in FIG. 1A. In cases where more than 1 peptide is identified for a given target antigen, an equimolar pool of the indicated peptides (each 10 μM) was pulsed onto DC.IL12 and used for vaccination in the relevant cohort. One week after the booster vaccine (i.e. day zero), animals were challenged subcutaneously on their left flank with 2×10^6 MC38 colon carcinoma cells. Tumor growth was then monitored every 3-4 days through day 24. All data represent mean tumor area (in mm^2)+/−SD determined from 5 mice/cohort, and are representative of three independent experiments performed. *p<0.05 versus DC only on the indicated days.
Vaccine Experiments. For prophylactic experiments, HHD mice were immunized subcutaneously on the right flank with 100 μl PBS or PBS containing 10^6 syngenic DC.IL12 cells that had been untreated or pre-pulsed for 4 h at 37° C. with 10 μM synthetic peptide(s). Immunizations occurred on days −14 and −7, with mice subsequently receiving injections of MC38 (2×10^6) tumor cells in the left flank on d0. In all cases, treatment groups contained 5 mice per cohort. For analysis of tumor cellular composition in repeat experiments, MC38 tumors were isolated by surgical resection 10 days after tumor inoculation and prepared for fluorescence imaging, as described below. […] Mice were then untreated or treated with control, syngenic DC.IL12 or DC.IL12 (10^6 cells injected subcutaneously in the left flank on days 7 and 14) pulsed with synthetic TBVA peptides. In some assays, as indicated, in vivo antibody depletions (on days 6, 13 and 20 post-tumor inoculation to assess early involvement or on days 60 and 67 or 180 and 187 to assess late involvement) of protective CD4^+ T cells or CD8^+ T cells were performed and monitored as previously described (Zhao et al., Mol Ther., 19:805-814, 2011). In all cases, tumor size (area) was monitored every 3-4 days and is reported as mean+/−SD in mm^2.
Evaluation of Specific CD8^+ T Cell Responses in HHD Mice. MACS (Miltenyi Biotec) CD8^+ splenocytes were harvested (from 3 mice/group) 7 days after the second round of DC-based vaccination (i.e. day 21 after tumor inoculation) and analyzed for reactivity against unpulsed T2 cells, TBVA peptide-pulsed T2 cells, or day 19 (flow-sorted) B16-derived PDGFRβ^+CD31^negH-2K^b(neg) pericytes or PDGFRβ^negCD31^+H-2K^b(neg) VEC isolated as previously described (Zhao et al., Mol Ther., 19:805-814, 2011). Where indicated, 10 μg of anti-HLA-A2 mAb BB7.2 or control anti-class II mAb L243 (both from ATCC, Manassas, Va.) were added to replicate co-culture wells. After 48 h, supernatants were analyzed for mIFN-γ content by specific ELISA (BD-Biosciences; lower detection limit=31.3 pg/ml). […]

Substance	Survival of B16-bearing HHD mice (B16 melanoma)	B16 tumor growth in HHD mice (B16 melanoma)	Tc1 Response to Peptide Vaccine (HHD) (CD8+ splenocytes)
EphA2: EphA2-derived peptide 883-891 pulsed onto DC or DC.IL12 (TLADFDPRV; listed as Homo sapiens)	significant survival benefits	effective in suppressing tumor growth	–
LAALPHSCL (listed as Homo sapiens)	–	–	+ (+, p < 0.05 versus DC only)
RGS5: RGS5-derived peptide 5-13 pulsed onto DC or DC.IL12 (LAALPHSCL; listed as Homo sapiens)	significant survival benefits	effective in suppressing tumor growth	–
TEM1: TEM1-derived peptide 691-700 pulsed onto DC or DC.IL12 (LLVPTCVFLV; listed as Homo sapiens)	significant survival benefits	–	–
